Measured values: patent publication US20190367516A1 (Bayer Pharma Aktiengesellschaft, priority 2015, published 2019)
Where two headings read alike, the source gives them in different places.

Target: T1, human M2 receptor (Homo sapiens, UniProt P08172)
T1 sequence (P08172 1-466): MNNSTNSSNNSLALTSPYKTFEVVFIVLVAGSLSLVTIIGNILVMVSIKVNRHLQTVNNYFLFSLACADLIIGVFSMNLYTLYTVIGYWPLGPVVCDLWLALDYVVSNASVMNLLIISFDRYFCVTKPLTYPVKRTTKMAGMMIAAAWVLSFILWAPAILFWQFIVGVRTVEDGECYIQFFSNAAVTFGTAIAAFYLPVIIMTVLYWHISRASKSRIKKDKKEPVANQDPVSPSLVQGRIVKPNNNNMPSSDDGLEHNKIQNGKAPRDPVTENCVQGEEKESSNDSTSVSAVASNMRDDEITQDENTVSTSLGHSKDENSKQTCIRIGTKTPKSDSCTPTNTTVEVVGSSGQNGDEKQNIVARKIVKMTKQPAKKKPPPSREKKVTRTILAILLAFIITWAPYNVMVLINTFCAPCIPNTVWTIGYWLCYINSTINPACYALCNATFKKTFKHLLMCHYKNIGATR
Settings: for Emax: read-out: Efficiency, boosting of the acetylcholine effect at EC20 acetylcholine concentration; for Efficiency: boosting of the acetylcholine effect at EC20 acetylcholine concentration

[1] = Receptor activity EC50, M2-GIRK1/4 activation test, acetylcholine at EC20, allosteric potency, in some cases mean values from two or more determinations
[2] = Receptor activity EC50, allosteric potency at EC20 acetylcholine, M2-GIRK1/4 reporter cells, in some cases mean of two or more determinations

Row | EC50 [1] | Structure (SMILES) | further results
1 | 0.207 µM | CC(NC(=O)c1cn(-c2ccc(F)cc2F)c2nc(N3C[C@@H](O)CC3=O)ccc2c1=O)c1ccccc1F (stereo partly drawn) [Example 235, 1-(2,4-Difluorophenyl)-N-[1-(2-fluorophenyl)ethyl]-7-[(4S)-4-hydroxy-2-oxopyrrolidin-1-yl]-4-oxo-1,4-dihydro-1,8-naphthyridine-3-carboxamide] | –
2 | 0.159 µM | O=C(NC12CC3CC(CC(C3)C1)C2)c1cn(-c2ccc(F)cc2F)c2nc(N3CCCC(CCO)C3)ccc2c1=O (centres unmarked) [Example 17, 1-(2,4-Difluorophenyl)-7-[3-(2-hydroxyethyl)piperidin-1-yl]-4-oxo-N-(tricyclo[3.3.1.1^3,7]dec-1-yl)-1,4-dihydro-1,8-naphthyridine-3-carboxamide] | –
3 | – | CC[C@H](NC(=O)c1cn(-c2c(F)cc(F)cc2F)c2nc(N3CC(F)C3)ccc2c1=O)C(F)(F)F [Example 501] | EC50 [2]: 0.058 µM; Emax (M2-GIRK1/4 reporter cells): 98%
4 | – | CC(C)C(C)NC(=O)c1cn(-c2c(F)cc(F)cc2F)c2nc(N3C[C@@H](O)CC3=O)ccc2c1=O (stereo in doubt) [Example 482, 7-[(4S)-4-Hydroxy-2-oxopyrrolidin-1-yl]-N-[(2R)-3-methylbutan-2-yl]-4-oxo-1-(2,4,6-trifluorophenyl)-1,4-dihydro-1,8-naphthyridine-3-carboxamide] | EC50 [2]: 0.013 µM; Emax (M2-GIRK1/4 reporter cells): 98.5%
5 | 0.53 µM | CC[C@@H](NC(=O)c1cn(-c2ccc(F)cc2F)c2nc(N3CCOC(C(F)F)C3)ccc2c1=O)C(F)(F)F (single isomer, unassigned) [Example 264] | –
6 | 0.145 µM | CC(C)(NC(=O)c1cn(-c2ccc(F)cc2F)c2nc(N3CC[C@@H](O)C3)ccc2c1=O)c1c(F)cccc1F [Example 21, 1-(2,4-Difluorophenyl)-N-[2-(2,6-difluorophenyl)propan-2-yl]-7-[(3R)-3-hydroxypyrrolidin-1-yl]-4-oxo-1,4-dihydro-1,8-naphthyridine-3-carboxamide] | –
7 | – | CC(NC(=O)c1cn(-c2c(F)cc(F)cc2F)c2nc(N3CCNC3=O)ccc2c1=O)(C(F)(F)F)C(F)(F)F [Example 581, N-(1,1,1,3,3,3-Hexafluoro-2-methylpropan-2-yl)-4-oxo-7-(2-oxoimidazolidin-1-yl)-1-(2,4,6-trifluorophenyl)-1,4-dihydro-1,8-naphthyridine-3-carboxamide] | EC50 [2]: 0.014 µM; Emax (M2-GIRK1/4 reporter cells): 98%
8 | 0.069 µM | CC[C@H](NC(=O)c1cn(-c2c(F)cccc2F)c2nc(N3CCC(C)(O)C3)ccc2c1=O)C(F)(F)F (stereo partly drawn) [Example 327, 1-(2,6-Difluorophenyl)-7-[3-hydroxy-3-methylpyrrolidin-1-yl]-4-oxo-N-[(2S)-1,1,1-trifluorobutan-2-yl]-1,4-dihydro-1,8-naphthyridine-3-carboxamide] | –
9 | 0.106 µM | CN(C)c1ccc2c(=O)c(C(=O)NC34CC5CC(C3)C(F)(F)C(C5)C4)cn(-c3ccc(F)cc3Cl)c2n1 [Example 40, 1-(2-Chloro-4-fluorophenyl)-N-(4,4-difluorotricyclo[3.3.1.1^3,7]dec-1-yl)-7-(dimethylamino)-4-oxo-1,4-dihydro-1,8-naphthyridine-3-carboxamide] | –
10 | 0.042 µM | CC(C)CC(NC(=O)c1cn(-c2ccc(F)cc2F)c2nc(NCCF)ccc2c1=O)C(F)(F)F (centres unmarked) [Example 88] | –
11 | 0.044 µM | O=C(NC(c1ccc(F)cc1)C(F)(F)F)c1cn(-c2ccc(F)cc2F)c2nc(N3C[C@@H](O)CC3=O)ccc2c1=O (mixture of isomers) [Example 273, 1-(2,4-Difluorophenyl)-7-[(4S)-4-hydroxy-2-oxopyrrolidin-1-yl]-4-oxo-N-[2,2,2-trifluoro-1-(4-fluorophenyl)ethyl]-1,4-dihydro-1,8-naphthyridine-3-carboxamide] | –
12 | – | CCC(COC(F)(F)F)NC(=O)c1cn(-c2c(F)cc(F)cc2F)c2nc(N3C[C@@H](O)[C@H](O)C3)ccc2c1=O (mixture of isomers) [Example 576, 7-[(3R,4R)-3,4-Dihydroxypyrrolidin-1-yl]-4-oxo-N-[1-(trifluoromethoxy)butan-2-yl]-1-(2,4,6-trifluorophenyl)-1,4-dihydro-1,8-naphthyridine-3-carboxamide] | EC50 [2]: 0.013 µM; Emax (M2-GIRK1/4 reporter cells): 99.5%
13 | – | CC(NC(=O)c1cn(-c2c(F)cc(F)cc2F)c2nc(N3C[C@@H](C)NC3=O)ccc2c1=O)C(F)(F)C(F)(F)F (single isomer, unassigned) [Example 460] | EC50 [2]: 0.005 µM; Efficiency (M2-GIRK1/4 reporter cells): 98.0%
14 | – | CC(NC(=O)c1cn(-c2c(F)cc(F)cc2F)c2nc(N3C[C@@H](O)[C@H](O)C3)ccc2c1=O)(C(F)(F)F)C(F)(F)F [Example 591, 7-[(3R,4R)-3,4-Dihydroxypyrrolidin-1-yl]-N-(1,1,3,3,3-hexafluoro-2-methylpropan-2-yl)-4-oxo-1-(2,4,6-trifluorophenyl)-1,4-dihydro-1,8-naphthyridine-3-carboxamide] | EC50 [2]: 0.016 µM; Emax (M2-GIRK1/4 reporter cells): 100%
15 | 1.64 µM | O=C(NC1(C(F)(F)F)CCOC1)c1cn(-c2ccc(F)cc2F)c2nc(N3C[C@@H](O)CC3=O)ccc2c1=O (mixture of isomers) [Example 238, 1-(2,4-Difluorophenyl)-7-[(4S)-4-hydroxy-2-oxopyrrolidin-1-yl]-4-oxo-N-[3-(trifluoromethyl)tetrahydrofuran-3-yl]-1,4-dihydro-1,8-naphthyridine-3-carboxamide] | –
16 | 0.06 µM | CC[C@@H](NC(=O)c1cn(-c2ccc(F)cc2F)c2nc(N3CC(C)CC3=O)ccc2c1=O)C(F)(F)F (single isomer, unassigned) [Example 303] | –
17 | 0.05 µM | CC[C@H](NC(=O)c1cn(-c2ccc(F)cc2F)c2nc(N(C)CCF)ccc2c1=O)C(F)(F)F [Example 103, 1-(2,4-Difluorophenyl)-7-[(2-fluoroethyl)(methyl)amino]-4-oxo-N-[(2S)-1,1,1-trifluorobutan-2-yl]-1,4-dihydro-1,8-naphthyridine-3-carboxamide] | –
18 | 0.062 µM | CN(CCF)c1ccc2c(=O)c(C(=O)NC34CCC(F)(CC3)CC4)cn(-c3ccc(F)cc3F)c2n1 [Example 110, 1-(2,4-Difluorophenyl)-N-(4-fluorobicyclo[2.2.2]oct-1-yl)-7-[(2-fluoroethyl)(methyl)amino]-4-oxo-1,4-dihydro-1,8-naphthyridine-3-carboxamide] | –
19 | 0.028 µM | CC[C@H](NC(=O)c1cn(-c2ccc(F)cc2F)c2nc(N(C)C)ccc2c1=O)C(F)(F)F [Example 45, 1-(2,4-Difluorophenyl)-7-(dimethylamino)-4-oxo-N-[(2S)-1,1,1-trifluorobutan-2-yl]-1,4-dihydro-1,8-naphthyridine-3-carboxamide] | –
20 | 0.016 µM | O=C(NC12CC3CC(CC(C3)C1)C2)c1cn(-c2ccc(F)cc2F)c2nc(N3CC[C@H](F)C3)ccc2c1=O [Example 61, 1-(2,4-Difluorophenyl)-7-[(3S)-3-fluoropyrrolidin-1-yl]-4-oxo-N-(tricyclo[3.3.1.1^3,7]dec-1-yl)-1,4-dihydro-1,8-naphthyridine-3-carboxamide] | –
21 | 0.182 µM | O=C(NCc1c(Cl)cccc1Cl)c1cn(-c2ccc(F)cc2F)c2nc(N3CCCS3(=O)=O)ccc2c1=O [Example 182, N-(2,6-Dichlorobenzyl)-1-(2,4-difluorophenyl)-7-(1,1-dioxido-1,2-thiazolidin-2-yl)-4-oxo-1,4-dihydro-1,8-naphthyridine-3-carboxamide] | –
22 | 0.059 µM | O=C(NC12CC3CC(CC(C3)C1)C2)c1cn(-c2ccc(F)cc2F)c2nc(N3CCC(O)(CO)CC3)ccc2c1=O [Example 116, 1-(2,4-Difluorophenyl)-7-[4-hydroxy-4-(hydroxymethyl)piperidin-1-yl]-4-oxo-N-(tricyclo[3.3.1.1^3,7]dec-1-yl)-1,4-dihydro-1,8-naphthyridine-3-carboxamide] | –
23 | – | O=C(NC(CC(F)(F)F)C1CC1)c1cn(-c2c(F)cc(F)cc2F)c2nc(N3C[C@@H](O)[C@H](O)C3)ccc2c1=O (mixture of isomers) [Example 438, N-[1-Cyclopropyl-3,3,3-trifluoropropyl]-7-[(3R,4R)-3,4-dihydroxypyrrolidin-1-yl]-4-oxo-1-(2,4,6-trifluorophenyl)-1,4-dihydro-1,8-naphthyridine-3-carboxamide] | EC50 [2]: 0.037 µM; Emax (M2-GIRK1/4 reporter cells): 99.5%
24 | 0.032 µM | CC(C)[C@H](NC(=O)c1cn(-c2ccc(F)cc2F)c2nc(N(C)C)ccc2c1=O)C(F)(F)F [Example 134, 1-(2,4-Difluorophenyl)-7-(dimethylamino)-4-oxo-N-[(2S)-1,1,1-trifluoro-3-methylbutan-2-yl]-1,4-dihydro-1,8-naphthyridine-3-carboxamide] | –
25 | – | CC(NC(=O)c1cn(-c2c(F)cc(F)cc2F)c2nc(N3C[C@@H](O)CC3=O)ccc2c1=O)C(F)(F)C(F)(F)F (single isomer, unassigned) [Example 531] | EC50 [2]: 0.009 µM; Efficiency (M2-GIRK1/4 reporter cells): 97.0%

Row | Structure (SMILES) | EC50 [1] | further results
26 | O=C(NC12CC3CC(CC(C3)C1)C2)c1cn(-c2ccc(F)cc2F)c2nc(N3C[C@@H](O)CC3=O)ccc2c1=O [Example 170] | 0.019 µM | –
27 | O=C(NC12CC3CC(CC(C3)C1)C2)c1cn(-c2ccc(F)cc2F)c2nc(NCCO)ccc2c1=O [Example 79, 1-(2,4-Difluorophenyl)-7-[(2-hydroxyethyl)amino]-4-oxo-N-(tricyclo[3.3.1.1^3,7]dec-1-yl)-1,4-dihydro-1,8-naphthyridine-3-carboxamide] | 0.144 µM | –
